Laboratory results published in ChEMBL document CHEMBL3769345, “Rapid Synthesis of Boc-2',6'-dimethyl-l-tyrosine and Derivatives and Incorporation into Opioid Peptidomimetics” (ACS Med Chem Lett, 2015).
Active and inactive are the calls of the source. The rule behind the calls is not given here.

Columns and labels:
[1] = biological target: T1, Mu-type opioid receptor (Rattus norvegicus, UniProt P33535); experiment: Agonist activity at rat MOR expressed in rat C6 cells after 1 hr by [35S]GTPgammaS binding assay; type: functional, cell-based
T1 sequence (P33535 whole entry): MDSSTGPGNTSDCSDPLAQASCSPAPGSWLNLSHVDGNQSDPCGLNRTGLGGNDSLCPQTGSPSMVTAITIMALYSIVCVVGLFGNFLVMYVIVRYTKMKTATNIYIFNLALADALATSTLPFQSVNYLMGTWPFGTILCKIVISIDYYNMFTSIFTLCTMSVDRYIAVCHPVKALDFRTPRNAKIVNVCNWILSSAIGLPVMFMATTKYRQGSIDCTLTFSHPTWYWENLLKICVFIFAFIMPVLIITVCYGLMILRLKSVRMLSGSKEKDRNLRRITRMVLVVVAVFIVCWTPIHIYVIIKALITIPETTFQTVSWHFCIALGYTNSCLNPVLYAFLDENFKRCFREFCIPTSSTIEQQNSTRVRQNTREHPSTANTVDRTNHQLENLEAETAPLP

[2] = biological target: T2, Kappa-type opioid receptor (Homo sapiens, UniProt P41145); experiment: Agonist activity at human KOR expressed in CHO cells at 10 uM after 1 hr by [35S]GTPgammaS binding assay relative to U69,593; type: functional, cell-based
T2 sequence (P41145 whole entry): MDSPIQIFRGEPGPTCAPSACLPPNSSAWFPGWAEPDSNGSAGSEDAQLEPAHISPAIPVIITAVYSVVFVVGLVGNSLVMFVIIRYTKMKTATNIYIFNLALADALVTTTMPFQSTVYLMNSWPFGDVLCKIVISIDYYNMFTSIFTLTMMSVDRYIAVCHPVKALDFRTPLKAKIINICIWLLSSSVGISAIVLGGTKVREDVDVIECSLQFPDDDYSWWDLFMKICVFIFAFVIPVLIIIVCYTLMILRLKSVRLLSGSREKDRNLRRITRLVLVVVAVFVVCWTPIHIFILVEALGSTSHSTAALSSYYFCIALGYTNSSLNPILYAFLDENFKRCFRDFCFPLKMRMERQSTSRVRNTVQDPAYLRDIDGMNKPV

[3] = biological target: Mu-type opioid receptor (Rattus norvegicus) (UniProt P33535); experiment: Agonist activity at rat MOR expressed in rat C6 cells at 10 uM after 1 hr by [35S]GTPgammaS binding assay relative to DAMGO; type: functional, cell-based
Chain of Mu-type opioid receptor (Rattus norvegicus) (P33535 whole entry): as the sequence (P33535 whole entry) above

[4] = biological target: T3, Delta-type opioid receptor (Rattus norvegicus, UniProt P33533); experiment: Agonist activity at rat DOR expressed in rat C6 cells after 1 hr by [35S]GTPgammaS binding assay; type: functional, cell-based
T3 sequence (P33533 whole entry): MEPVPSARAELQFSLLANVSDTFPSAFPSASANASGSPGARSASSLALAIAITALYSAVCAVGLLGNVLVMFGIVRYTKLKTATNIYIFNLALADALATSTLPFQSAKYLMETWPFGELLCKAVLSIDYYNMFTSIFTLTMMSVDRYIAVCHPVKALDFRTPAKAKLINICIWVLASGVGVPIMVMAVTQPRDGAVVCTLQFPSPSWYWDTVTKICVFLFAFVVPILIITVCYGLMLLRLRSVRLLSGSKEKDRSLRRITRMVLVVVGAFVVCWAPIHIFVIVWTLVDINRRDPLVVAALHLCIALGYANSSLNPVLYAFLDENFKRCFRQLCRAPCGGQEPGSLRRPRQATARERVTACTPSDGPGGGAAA

[5] = biological target: T2, Kappa-type opioid receptor; experiment: Agonist activity at human KOR expressed in CHO cells after 1 hr by [35S]GTPgammaS binding assay; type: functional, cell-based
[6] = biological target: T1, Mu-type opioid receptor; experiment: Displacement of [3H]diprenorphine from rat MOR expressed in rat C6 cells after 1 hr by liquid scintillation counting method; type: cell-based
[7] = biological target: Delta-type opioid receptor (Rattus norvegicus) (UniProt P33533); experiment: Agonist activity at rat DOR expressed in rat C6 cells at 10 uM after 1 hr by [35S]GTPgammaS binding assay relative to DPDPE; type: functional, cell-based
Chain of Delta-type opioid receptor (Rattus norvegicus) (P33533 whole entry): as above

[8] = biological target: T2, Kappa-type opioid receptor; experiment: Displacement of [3H]diprenorphine from human KOR expressed in CHO cells after 1 hr by liquid scintillation counting method; type: cell-based
[9] = biological target: T3, Delta-type opioid receptor; experiment: Displacement of [3H]diprenorphine from rat DOR expressed in rat C6 cells after 1 hr by liquid scintillation counting method; type: cell-based

SMILES | EC50 [1] [µM] | max activation [2] [%] | max activation [3] [%] | EC50 ([4]; read-out: EC50) [µM] | EC50 [5] [µM] | Ki [6] [µM] | max activation [7] | Ki [8] [µM] | Ki [9] [µM] | EC50 ([4]; c6)
Cc1cc(C[C@H](N)C(=O)N[C@@H]2CCNc3ccc(Cc4ccccc4)cc32)c(C)cc1O | 0.039 | 22 | 89 | 5.9 | 0.37 | 0.0065 | 53% | 0.73 | 0.39 | 
N[C@@H](Cc1c(Cl)cc(O)cc1Cl)C(=O)N[C@@H]1CCNc2ccc(Cc3ccccc3)cc21 | 0.033 | 32 | 83 |  | 1.2 | 0.00047 | inactive | 0.035 | 0.037 | Not Active
Cc1cccc(C)c1C[C@H](N)C(=O)N[C@@H]1CCNc2ccc(Cc3ccccc3)cc21 | 0.28 | 38 | 86 |  | 4.8 | 0.018 |  | 0.13 | 0.66 | Not Active
Cc1cc(O)ccc1C[C@H](N)C(=O)N[C@@H]1CCNc2ccc(Cc3ccccc3)cc21 | 0.044 | 41 | 69 |  | 2.4 | 0.0017 |  | 0.096 | 0.042 | Not Active
N[C@@H](Cc1ccc2cccc(O)c2c1)C(=O)N[C@@H]1CCNc2ccc(Cc3ccccc3)cc21 |  |  |  |  |  | 0.44 |  | 2.5 | 1.6 | 
